# In patent US20240196933A1, “USE OF GOSSYPOL AND A METHANE INHIBITOR FOR REDUCING THE FORMATION OF METHANE EMANATING FROM THE DIGESTIVE ACTIVITIES OF RUMINANTS” (DSM IP ASSETS B.V., priority 2021, published 2024):
# Test system: rumen liquor
# Experiment: In vitro test for methane production (modified Hohenheim Forage value Test, HFT)
# Format: cell-based
# Details: TMR feed, 8 h at 39° C.
# Method: In vitro test for methane production: A modified version of the “Hohenheim Forage value Test (HFT)” was used for testing the effect of specific compounds on the rumen functions mimicked by this in-vitro system.
# Principle: Feed is gadded into a syringe with a composition of rumen liquor and an appropriate mixture of buffers. The solution is incubated at 39° C. After 8 hours the quantity (and composition) of gas phase produced is measured and put into a formula for conversion.
# Sample weighing: The feed stuff (i.e. TMR (44% concentrate, 6% hay, 37% maize silage and 13% grass silage) is sieved to 1 mm and weighed exactly into 64 syringes. 4 of these syringes are the substrate controls, which display the gas production without the effect of the tested compounds. 4 other syringes are positive control (3-NOP, 10 μM). When needed, 4 syringes contain a carrier control (if the test compounds need a carrier). The remaining syringes contain the test substances, by groups of 4 syringes, in the amounts as indicated in table 1.
# • The components are mixed in a Woulff bottle in following order: • 711 ml water • 0.18 ml trace element solution • 355.5 ml buffer solution • 355.5 ml mass element solution • The completed solution is warmed up to 39° C. followed by the addition of 1.83 ml sodium salt solution and the addition of reduction solution at 36° C. The rumen liquor is added, when the indicator turns colourless.
# Extraction of the rumen liquor: 750 ml of rumen liquor are added to approximately 1,400 ml of medium solution under continued agitation and CO2-gassing.
# Filling the syringes, incubation and determining gas volumes and VFA values: The diluted rumen fluid (24 ml) is added to the glass syringe. The syringes are then incubated for 8 hours at 39° C. under gentle agitation. After 8 hours, the volume of gas produced is measured, and the percentage of methane in the gas phase is determined by gas chromatography.
# The food fermented was artificial TMR (44% concentrate, 6% hay, 37% maize silage and 13% grass silage). Gossypol was obtained from Sigma-Aldrich (G8761), and used at a concentration as outlined in table 1. 3-Nitrooxy-propanol (3-NOP) was used at the concentration as outlined in table 1.
Compound,Total methane change [% vs. control] found (3-NOP 2.5 μM alone) [% vs. control],Total methane change [% vs. control] found (3-NOP 5 μM alone) [% vs. control],Total methane change [% vs. control] found (3-NOP 10 μM alone) [% vs. control],Total methane change [% vs. control] found (G 5 μM alone) [% vs. control],Total methane change [% vs. control] found (G 10 μM alone) [% vs. control],Total methane change [% vs. control] found (G 20 μM alone) [% vs. control],Total methane change [% vs. control] found (G 100 μM alone) [% vs. control]
"O=[N+]([O-])OCCCO [3-NOP, 3-Nitrooxy-propanol, reference compound]",−12,−54,−98,–,–,–,–
"Cc1cc2c(C(C)C)c(O)c(O)c(C=O)c2c(O)c1-c1c(C)cc2c(C(C)C)c(O)c(O)c(C=O)c2c1O [G, Gossypol]",–,–,–,−1,−11,−15,−69
